# Measured values reported in PubChem BioAssay AID328 (DTP/NCI, 2004).
# Several values for one entry are separate records, joined by “and”; a condition that tells them apart may be missing. Identical values can stand only once. Toxic doses and inconclusive results are not listed.
# Test system: BDF1 mice, P388 leukemia ip, median survival T/C
# Assay: NCI In Vivo Anticancer Drug Screen. Data for tumor model P388 Leukemia (intraperitoneal) in B6D2F1 (BDF1) mice
# Settings: endpoint: median survival time, higher = longer survival
# In short: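 Reported as T/C, where T is the survival measurement in dosed animals and C the same measurement in vehicle controls.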
# [1] = dose: 100.0 mg/kg/injection, schedule: Q04DX003 (ip), vehicle: Klucel (hydroxypropylcellulose) (HPC)
# [2] = dose: 12.5 mg/kg/injection, schedule: Q01DX009 (ip), vehicle: saline
# [3] = dose: 50.0 mg/kg/injection, schedule: Q01DX009 (ip), vehicle: saline
# [4] = dose: 200.0 mg/kg/injection, schedule: Q04DX003 (ip), vehicle: Klucel (hydroxypropylcellulose) (HPC)
# [5] = dose: 400.0 mg/kg/injection, schedule: Q04DX003 (ip), vehicle: Klucel (hydroxypropylcellulose) (HPC)
# [6] = dose: 100.0 mg/kg/injection, schedule: Q04DX003 (ip), vehicle: saline with Tween-80
# [7] = dose: 200.0 mg/kg/injection, schedule: Q04DX003 (ip), vehicle: saline with Tween-80
# [8] = dose: 400.0 mg/kg/injection, schedule: Q04DX003 (ip), vehicle: saline with Tween-80
# [9] = dose: 200.0 mg/kg/injection, schedule: Q01DX009 (ip), vehicle: saline with Tween-80
structure (smiles),measurement,setting,value
CC(=O)O[C@H]1CC[C@H]2[C@@H]3CC[C@H]4C[C@@H]5[C@H](C[C@]4(C)[C@H]3CC[C@]12C)C5(F)F,T/C,"dose: 3.12 mg/kg/injection, schedule: Q04DX003 (ip), vehicle: Klucel (hydroxypropylcellulose) (HPC)",100 % of control
same,T/C,"dose: 6.25 mg/kg/injection, schedule: Q01DX009 (ip), vehicle: Klucel (hydroxypropylcellulose) (HPC)",88 % of control
same,T/C,"dose: 6.25 mg/kg/injection, schedule: Q04DX003 (ip), vehicle: Klucel (hydroxypropylcellulose) (HPC)",100 % of control
same,T/C,"dose: 12.5 mg/kg/injection, schedule: Q01DX009 (ip), vehicle: Klucel (hydroxypropylcellulose) (HPC)",92 % of control
same,T/C,"dose: 12.5 mg/kg/injection, schedule: Q04DX003 (ip), vehicle: Klucel (hydroxypropylcellulose) (HPC)",100 % of control
same,T/C,"dose: 25.0 mg/kg/injection, schedule: Q01DX009 (ip), vehicle: Klucel (hydroxypropylcellulose) (HPC)",100 % of control
same,T/C,[1],100 % of control
O=NN(CCCl)C(=O)Nc1cc(NC(=O)N(CCCl)N=O)cc(C(=O)O)c1,T/C,"dose: 0.03 mg/kg/injection, schedule: Q04DX003 (ip), vehicle: saline with Tween-80",116 % of control
same,T/C,"dose: 0.06 mg/kg/injection, schedule: Q04DX003 (ip), vehicle: saline with Tween-80",120 % of control and 122 % of control
same,T/C,"dose: 0.5 mg/kg/injection, schedule: Q04DX003 (ip), vehicle: saline with Tween-80",150 % of control
same,T/C,"dose: 0.6 mg/kg/injection, schedule: Q04DX003 (ip), vehicle: saline with Tween-80",163 % of control
same,T/C,"dose: 1.0 mg/kg/injection, schedule: Q04DX003 (ip), vehicle: saline with Tween-80",170 % of control
same,T/C,"dose: 1.8 mg/kg/injection, schedule: Q04DX003 (ip), vehicle: saline with Tween-80",195 % of control
same,T/C,"dose: 2.0 mg/kg/injection, schedule: Q04DX003 (ip), vehicle: saline with Tween-80",200 % of control
same,T/C,"dose: 2.3 mg/kg/injection, schedule: Q04DX003 (ip), vehicle: saline with Tween-80",215 % of control
same,T/C,"dose: 2.5 mg/kg/injection, schedule: Q04DX003 (ip), vehicle: saline with Tween-80",195 % of control
same,T/C,"dose: 3.5 mg/kg/injection, schedule: Q04DX003 (ip), vehicle: saline with Tween-80",265 % of control
same,T/C,"dose: 3.7 mg/kg/injection, schedule: Q04DX003 (ip), vehicle: saline with Tween-80",186 % of control
same,T/C,"dose: 5.5 mg/kg/injection, schedule: Q04DX003 (ip), vehicle: saline with Tween-80",235 % of control
same,T/C,"dose: 6.0 mg/kg/injection, schedule: Q04DX003 (ip), vehicle: saline with Tween-80",222 % of control
same,T/C,"dose: 8.5 mg/kg/injection, schedule: Q04DX003 (ip), vehicle: saline with Tween-80",275 % of control
same,T/C,"dose: 13.0 mg/kg/injection, schedule: Q04DX003 (ip), vehicle: saline with Tween-80",250 % of control and 300 % of control
same,T/C,"dose: 18.0 mg/kg/injection, schedule: Q04DX003 (ip), vehicle: saline with Tween-80",272 % of control
same,T/C,"dose: 20.0 mg/kg/injection, schedule: Q04DX003 (ip), vehicle: saline with Tween-80",272 % of control and 300 % of control and 218 % of control
same,T/C,"dose: 30.0 mg/kg/injection, schedule: Q04DX003 (ip), vehicle: saline with Tween-80",235 % of control and 272 % of control
same,T/C,"dose: 45.0 mg/kg/injection, schedule: Q04DX003 (ip), vehicle: saline with Tween-80",95 % of control
C=C1C(=O)OC(C)(C)C1(C)C,T/C,[2],105 % of control
same,T/C,"dose: 25.0 mg/kg/injection, schedule: Q01DX009 (ip), vehicle: saline",98 % of control
same,T/C,[3],86 % of control and 88 % of control
COC(=O)C/C(=C\c1ccc(OC)c(OC)c1)C(=O)OC,T/C,"dose: 100.0 mg/kg/injection, schedule: Q01DX009 (ip), vehicle: Klucel (hydroxypropylcellulose) (HPC)",109 % of control
same,T/C,[1],104 % of control
same,T/C,"dose: 200.0 mg/kg/injection, schedule: Q01DX009 (ip), vehicle: Klucel (hydroxypropylcellulose) (HPC)",113 % of control
same,T/C,[4],100 % of control
same,T/C,"dose: 400.0 mg/kg/injection, schedule: Q01DX009 (ip), vehicle: Klucel (hydroxypropylcellulose) (HPC)",100 % of control
same,T/C,[5],100 % of control
CCCCCCC(=O)CCCCCCCCCCCCC(=O)OC,T/C,"dose: 1.56 mg/kg/injection, schedule: Q01DX009 (ip), vehicle: saline with Tween-80",90 % of control
same,T/C,"dose: 3.13 mg/kg/injection, schedule: Q01DX009 (ip), vehicle: saline with Tween-80",100 % of control
same,T/C,"dose: 6.25 mg/kg/injection, schedule: Q01DX009 (ip), vehicle: saline with Tween-80",95 % of control
CCN(CC)c1ccc(/C=C/c2ccncc2)cc1,T/C,[1],100 % of control
same,T/C,[4],100 % of control
same,T/C,[5],109 % of control
CCC(=O)OCc1c(C)nc2sccn12,T/C,"dose: 25.0 mg/kg/injection, schedule: Q01DX001 (ip), vehicle: saline",96 % of control
same,T/C,"dose: 50.0 mg/kg/injection, schedule: Q01DX001 (ip), vehicle: saline",102 % of control
same,T/C,"dose: 100.0 mg/kg/injection, schedule: Q01DX001 (ip), vehicle: saline",105 % of control
CNC/C(C)=C/Br,T/C,"dose: 12.5 mg/kg/injection, schedule: Q01DX009 (ip), vehicle: acetone",100 % of control
same,T/C,"dose: 18.75 mg/kg/injection, schedule: Q04DX003 (ip), vehicle: saline",100 % of control
same,T/C,"dose: 25.0 mg/kg/injection, schedule: Q01DX009 (ip), vehicle: acetone",104 % of control
same,T/C,"dose: 37.5 mg/kg/injection, schedule: Q04DX003 (ip), vehicle: saline",104 % of control
same,T/C,"dose: 50.0 mg/kg/injection, schedule: Q01DX009 (ip), vehicle: acetone",104 % of control
same,T/C,[3],100 % of control
same,T/C,"dose: 63.75 mg/kg/injection, schedule: Q01DX001 (ip), vehicle: saline",100 % of control
same,T/C,"dose: 75.0 mg/kg/injection, schedule: Q01DX009 (ip), vehicle: saline",95 % of control
same,T/C,"dose: 75.0 mg/kg/injection, schedule: Q04DX003 (ip), vehicle: saline",95 % of control
same,T/C,"dose: 100.0 mg/kg/injection, schedule: Q01DX009 (ip), vehicle: saline",115 % of control
same,T/C,"dose: 110.0 mg/kg/injection, schedule: Q04DX003 (ip), vehicle: saline",110 % of control
same,T/C,"dose: 127.5 mg/kg/injection, schedule: Q01DX001 (ip), vehicle: saline",100 % of control
same,T/C,"dose: 170.0 mg/kg/injection, schedule: Q04DX003 (ip), vehicle: saline",110 % of control
same,T/C,"dose: 200.0 mg/kg/injection, schedule: Q01DX009 (ip), vehicle: saline",105 % of control
same,T/C,"dose: 255.0 mg/kg/injection, schedule: Q04DX003 (ip), vehicle: saline",105 % of control
COc1cc2c(c(OC)c1OC)CC1c3c(cc4c(c3-2)OCO4)CCN1C (stereo not given),T/C,"dose: 37.5 mg/kg/injection, schedule: Q01DX009 (ip), vehicle: Klucel (hydroxypropylcellulose) (HPC)",98 % of control
same,T/C,"dose: 75.0 mg/kg/injection, schedule: Q01DX009 (ip), vehicle: Klucel (hydroxypropylcellulose) (HPC)",102 % of control
same,T/C,"dose: 150.0 mg/kg/injection, schedule: Q01DX009 (ip), vehicle: Klucel (hydroxypropylcellulose) (HPC)",124 % of control
CN1CCN(CCCN2c3ccccc3Sc3ccc(Cl)cc32)CC1,T/C,"dose: 6.25 mg/kg/injection, schedule: Q01DX009 (ip), vehicle: saline",113 % of control
same,T/C,[2],109 % of control
O=C(O)c1ccccc1C(=O)Nc1ccc([N+](=O)[O-])cc1Cl,T/C,"dose: 50.0 mg/kg/injection, schedule: Q04DX003 (ip), vehicle: Klucel (hydroxypropylcellulose) (HPC)",100 % of control
same,T/C,[1],100 % of control
same,T/C,[4],95 % of control
COc1ccc(CCNC(=O)Cc2ccc(OC)c(OC)c2)cc1OC,T/C,[6],100 % of control
same,T/C,[7],95 % of control
same,T/C,[8],100 % of control
CCCCS(=O)(=O)OCCCCOS(=O)(=O)CCCC,T/C,"dose: 100.0 mg/kg/injection, schedule: Q01DX009 (ip), vehicle: saline with Tween-80",113 % of control
same,T/C,[6],104 % of control
same,T/C,[9],118 % of control
same,T/C,[7],109 % of control
same,T/C,"dose: 264.0 mg/kg/injection, schedule: Q04DX003 (ip), vehicle: saline with Tween-80",91 % of control
same,T/C,"dose: 400.0 mg/kg/injection, schedule: Q01DX009 (ip), vehicle: saline with Tween-80",122 % of control
same,T/C,[8],95 % of control
same,T/C,"dose: 600.0 mg/kg/injection, schedule: Q04DX003 (ip), vehicle: saline with Tween-80",104 % of control
O=C1CCCCCC1Cc1cc(O)c(CC2CCCCCC2=O)cc1O (stereo not given),T/C,"dose: 50.0 mg/kg/injection, schedule: Q01DX009 (ip), vehicle: saline with Tween-80",96 % of control
same,T/C,[9],97 % of control
